How the values were obtained:
[1] = test system: venous malformation; assay: Electrosclerotherapy case, Example 2 (patient, photographs, 3 years follow-up)
[2] = test system: symptomatic venous malformation of the left thigh; assay: Electrosclerotherapy case, Example 1 (patient, MRI follow-up); type: in vivo, human; settings: 1.5 mg bleomycin
Method: FIGS. 1A and 1C show magnetic resonance of a symptomatic venous malformation of the left thigh in a patient previously treated with surgery and sclerotherapy;
FIGS. 1B and 1D show magnetic resonance of the symptomatic venous malformation of FIG. 1A three months after one electrosclerotherapy session.
A patient with a symptomatic venous malformation of the left thigh, causing swelling, pain, and partial immobility, recurring after surgery and sclerotherapy with Aethoxysklerol was treated with electrosclerotherapy using custom geometry electrodes and 1.5 mg bleomycin. […] Volume of the lesion before treatment: 26.79 cm^3; volume of the lesion after treatment: 0.00 cm^3.

[3] = test system: venous malformations that did not respond to previous invasive therapies; settings: 17 patients, cited from earlier work

Molecule | outcome of sclerotherapy ([1]; 7 sessions of ethanol sclerotherapy, without electric pulses) | magnetic resonance imaging outcome of the malformation ([2]; custom geometry electrodes, 3 months after one session of electrosclerotherapy) | adverse events ([2]; one electrosclerotherapy session) | volume of the lesion after treatment ([2]; one electrosclerotherapy session, volume before treatment 26.79 cm^3) [cm^3] | clinical improvement ([3]; after an average of 3.7 months and 1.12 sessions per patient) | decrease in lesion volume on magnetic resonance imaging (average) ([3]; bleomycin in combination with reversible electroporation, average 3.7 months and 1.12 sessions per patient) [%] | functionality of nerves ([1]; 2 sessions of electrosclerotherapy, finger electrode, 2 mg of Bleomycin per session, 3 years follow-up)
CCO [ethanol] | unsuccessfully treated | – | – | – | – | – | –
bleomycin | – | complete resolution of the malformation | No documented adverse events | 0.00 | clinical improvement in all patients | 86 | Functionality of nerves is preserved
